Laboratory results reported in BindingDB's records for doi:10.1046/j.1471-4159.1997.69051810.x (Janssen Research Foundation, 1997).

Key:
[1] = target: 5-hydroxytryptamine receptor 4 (Cavia porcellus, UniProt O70528)
[2] = target: 5-hydroxytryptamine receptor 4 (Homo sapiens, UniProt Q13639)
Chain of 5-hydroxytryptamine receptor 4 (Homo sapiens, UniProt Q13639) (Q13639 whole entry): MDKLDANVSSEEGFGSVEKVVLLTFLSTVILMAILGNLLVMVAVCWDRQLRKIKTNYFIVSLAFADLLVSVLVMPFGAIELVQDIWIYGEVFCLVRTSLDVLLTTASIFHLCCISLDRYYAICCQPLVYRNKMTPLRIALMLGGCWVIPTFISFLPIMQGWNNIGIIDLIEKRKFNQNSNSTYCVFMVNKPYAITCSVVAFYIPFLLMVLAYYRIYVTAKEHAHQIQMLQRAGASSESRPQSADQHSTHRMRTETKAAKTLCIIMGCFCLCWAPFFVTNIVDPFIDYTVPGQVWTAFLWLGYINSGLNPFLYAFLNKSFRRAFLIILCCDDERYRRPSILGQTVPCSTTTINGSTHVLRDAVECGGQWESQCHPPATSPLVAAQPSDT

Chain of 5-hydroxytryptamine receptor 4 (Cavia porcellus, UniProt O70528) (O70528 whole entry): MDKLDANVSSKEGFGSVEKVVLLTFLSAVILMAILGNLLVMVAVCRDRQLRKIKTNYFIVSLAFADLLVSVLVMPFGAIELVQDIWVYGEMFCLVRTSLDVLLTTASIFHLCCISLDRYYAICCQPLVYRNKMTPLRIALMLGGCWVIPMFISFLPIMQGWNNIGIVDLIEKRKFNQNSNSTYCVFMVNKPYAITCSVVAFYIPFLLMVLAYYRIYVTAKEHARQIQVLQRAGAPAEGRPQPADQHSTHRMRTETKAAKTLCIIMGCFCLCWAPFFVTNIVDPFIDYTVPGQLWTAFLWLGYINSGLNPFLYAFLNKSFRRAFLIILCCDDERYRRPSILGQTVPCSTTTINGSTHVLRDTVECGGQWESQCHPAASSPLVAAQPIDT

`CN1C2CCC1CC(OC(=O)c1c[nH]c3ccccc13)C2` (centres undefined) gave a Ki [1] of 200 nM.

In the case of `COc1[nH]c2ccc(F)cc2c1C(=O)OCC1CCN(CCNS(C)(=O)=O)CC1` [GR-125487], the Ki [2] is reported as 0.15 nM and the Ki [1] is reported as 0.19 nM.

In the case of `Cn1cc(C(=O)OCC2CCN(CCNS(C)(=O)=O)CC2)c2ccccc21` [GR 113808], the Ki [2] is reported as 0.25 nM and the Ki [1] is reported as 0.39 nM.

In the case of `CCCCN1CCC(COC(=O)c2cc(Cl)c(N)c3c2OCCO3)CC1` [CAS_121881], the Ki [2] is reported as 0.1 nM and the Ki [1] is reported as 0.07 nM.

`COc1ccc2[nH]cc(CCN)c2c1` [tryptamine, 5-Methoxy] gave a Ki [2] of 1000 nM and a Ki [1] of 251 nM.
